Experiment [1] deals with T1, recombinant human CYP11B2 (Homo sapiens, UniProt P19099).
T1 construct: made in house; host or cells: V79-4 cells (Chinese hamster lung fibroblasts); enzyme-enriched microsomal fraction of the lysate
T1 sequence (P19099 25-503): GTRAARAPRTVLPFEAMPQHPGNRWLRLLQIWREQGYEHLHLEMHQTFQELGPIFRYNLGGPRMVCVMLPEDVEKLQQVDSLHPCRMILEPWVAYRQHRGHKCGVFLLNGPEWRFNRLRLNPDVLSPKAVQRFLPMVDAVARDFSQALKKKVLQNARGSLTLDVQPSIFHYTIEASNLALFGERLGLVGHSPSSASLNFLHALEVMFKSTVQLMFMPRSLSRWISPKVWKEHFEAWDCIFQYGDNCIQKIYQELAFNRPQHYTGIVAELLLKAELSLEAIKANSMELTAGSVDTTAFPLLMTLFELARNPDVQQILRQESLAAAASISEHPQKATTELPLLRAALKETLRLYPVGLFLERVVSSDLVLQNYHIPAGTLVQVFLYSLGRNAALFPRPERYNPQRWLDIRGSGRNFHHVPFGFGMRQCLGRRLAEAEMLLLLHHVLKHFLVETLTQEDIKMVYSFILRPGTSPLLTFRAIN
The experiment can be described thus: CYP11B2 enzyme assay with enzyme enriched microsomes, aldosterone measured by LC-MS. It counts as biochemical. The settings on record: microsomes from V79-4 cells; 11-deoxycorticosterone at Km; read-out: hCYP11B2 IC50. Here is the method:
(§1) V79-4 cells expressing recombinant andrenodoxin and andrenodoxin reductase with either recombinant human CYP11B2 or CYP11B1 were prepared according to methods previously described (LaSala et al 2009 Anal Bioch 394:56-61). An enzyme enriched microsomal fraction was prepared from cellular lysates and subsequently used as the enzyme source for determining inhibitor IC50s. The substrate Km values were experimentally determined for 11-deoxycorticosterone (CYP11B2 substrate) and 11-deoxycortisol (CYP11B1 substrate). Enzyme assays for inhibitor screening employed CYP11B2 and CYP11B1 enzyme enriched microsomes and were run at the Km of the respective substrates. Products of the enzyme reactions, aldosterone for CYP11B2 or cortisol for CYP11B1, were measured by LC-MS. Assays were run under conditions of less than 20% substrate turnover. Inhibitor IC50s were generated by determining the product formation in the absence or presence of inhibitor at various concentrations. In the absence of the test compound, the product formed (Pt) in each data set was defined as 100% activity. In the absence of enzyme, the product formed (Pb) in each data set was defined as 0% activity. The percent activity in the presence of each inhibitor was calculated according to the following equation: % activity=(P−Pb)/(Pt−Pb), where P=the product formed in the presence of the inhibitor. The IC50 value was defined as the inhibitor concentration causing a 50% decrease in activity relative to the no inhibitor control reaction.

Experiment [2] deals with T2, recombinant human CYP11B1 (Homo sapiens, UniProt P15538).
T2 construct: made in house; host or cells: V79-4 cells (Chinese hamster lung fibroblasts); enzyme-enriched microsomal fraction of the lysate
T2 sequence (P15538 25-503): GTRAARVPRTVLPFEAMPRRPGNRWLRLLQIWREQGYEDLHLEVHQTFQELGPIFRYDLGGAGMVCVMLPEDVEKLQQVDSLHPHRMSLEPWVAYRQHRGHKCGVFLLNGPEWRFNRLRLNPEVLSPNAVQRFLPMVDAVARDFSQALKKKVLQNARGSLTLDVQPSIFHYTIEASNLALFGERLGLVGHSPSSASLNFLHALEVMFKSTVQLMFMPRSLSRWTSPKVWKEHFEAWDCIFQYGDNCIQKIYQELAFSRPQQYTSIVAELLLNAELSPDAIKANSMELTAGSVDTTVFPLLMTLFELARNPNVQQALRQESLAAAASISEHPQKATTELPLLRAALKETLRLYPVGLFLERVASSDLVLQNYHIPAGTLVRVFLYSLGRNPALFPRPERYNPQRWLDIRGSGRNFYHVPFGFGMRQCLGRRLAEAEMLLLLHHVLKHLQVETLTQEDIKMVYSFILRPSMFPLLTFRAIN
The experiment can be described thus: CYP11B1 enzyme assay with enzyme enriched microsomes, cortisol measured by LC-MS. The experiment is classed as biochemical. The note with it: microsomes from V79-4 cells; 11-deoxycortisol at Km; read-out: hCYP11B1 IC50. How it is done:
as §1

A word on the IC50: it is the midpoint of a concentration-inhibition curve. Take `N#Cc1ccc2nc(-n3cnc4cc(F)c(F)cc43)n(C3CC3)c2n1` [Example 32, 3-cyclopropyl-2-(5,6-difluoro-1H-benzo[d]imidazol-1-yl)-3H-imidaz[4,5-b]pyridine-5-carbonitrile]: the figures for the IC50 in experiment [1] and in experiment [2] were 1 to 100 nM and 1000 to 10000 nM, respectively.

Turning to `CCc1ccc2ncn(-c3nc4ccc(F)cc4n3C3CC3)c2c1` [Example 11, 1′-cyclopropyl-6-ethyl-6′-fluoro-1′H-1,2′-bibenzo[d]imidazole], the IC50 in experiment [1] lay in the range of 1 to 100 nM; in experiment [2] it was 1000 to 10000 nM.

In the case of `Fc1cc2nc(-n3cnc4cc(OC(F)F)ccc43)n(C3CC3)c2cc1F` [Example 52, 1′-cyclopropyl-5-(difluoromethoxy)-5′,6′-difluoro-1′H-1,2′-bibenzo[d]imidazole], the IC50 was in the range of 1 to 100 nM in experiment [1] and 100 to 1000 nM in experiment [2].

Take `Fc1cc2nc(-n3cnc4ccccc43)n(C3CC3)c2cc1F` [Example 16, 1′-cyclopropyl-5′,6′-difluoro-1′H-1,2′-bibenzo[d]imidazole]: the IC50 in experiment [1] was in the range of 1 to 100 nM; in experiment [2], 100 to 1000 nM.

As for `N#Cc1ccc2ncn(-c3nc4ccc(F)cc4n3C3CC3)c2c1` [Example 7, 1′-cyclopropyl-6′-fluoro-1′H-[1,2′-bibenzo[d]imidazole]-6-carbonitrile], the half-inhibitory concentration (IC50) in experiment [1] was 100 to 1000 nM; in experiment [2], > 10000 nM.

As to `CS(=O)(=O)Nc1ccc2c(c1)ncn2-c1nc2ccc(C#N)cc2n1C1CC1` [Example 47, N-(6′-cyano-1′-cyclopropyl-1′H-[1,2′-bibenzo[d]imidazol]-5-yl) methanesulfonamide], the figures for the IC50 in experiment [1] and in experiment [2] were 100 to 1000 nM and > 10000 nM, respectively.

In the case of `N#Cc1ccc2nc(-n3cnc4ccncc43)n(C3CC3)c2c1` [Example 42, 1-cyclopropyl-2-(3H-imidazo[4,5-c]pyridin-3-yl)-1H-benzo[d]imidazole-6-carbonitrile], the figures for the IC50 in experiment [1] and in experiment [2] were 1 to 100 nM and > 10000 nM, respectively.

As to `COc1ccc2ncn(-c3nc4ccc(F)cc4n3C3CC3)c2c1` [Example 13, 1′-cyclopropyl-6′-fluoro-6-methoxy-1′H-1,2′-bibenzo[d]imidazole], the IC50 in experiment [1] fell in the range of 1 to 100 nM; in experiment [2], 100 to 1000 nM.

For the compound `COc1ccc2c(c1)ncn2-c1nc2ccc(F)cc2n1C1CC1` [Example 12, 1′-cyclopropyl-6′-fluoro-5-methoxy-1′H-1,2′-bibenzo[d]imidazole], the IC50 in experiment [1] is 1 to 100 nM; in experiment [2], 100 to 1000 nM.

Take `Fc1ccc2nc(-n3cnc4ccc(C(F)(F)F)cc43)n(C3CC3)c2c1` [Example 21, 1′-cyclopropyl-6′-fluoro-6-(trifluoromethyl)-1′H-1,2′-bibenzo[d]imidazole]: the IC50 was 1 to 100 nM in experiment [1] and 1000 to 10000 nM in experiment [2].

Regarding `N#Cc1ccc2nc(-n3cnc4cc(OC(F)F)ccc43)n(C3CC3)c2c1` [Example 49, 1′-cyclopropyl-5-(difluoromethoxy)-1′H-[1,2′-bibenzo[d]imidazole]-6′-carbonitrile], the IC50 in experiment [1] was 1 to 100 nM; in experiment [2] it was 100 to 1000 nM.

Take `Fc1ccc2nc(-n3cnc4cc(OC(F)(F)F)ccc43)n(C3CC3)c2c1` [Example 27, 1′-cyclopropyl-6′-fluoro-5-(trifluoromethoxy)-1′H-1,2′-bibenzo[d]imidazole]: the half-maximal inhibitory concentration (IC50) lay in the range of 1 to 100 nM in experiment [1] and 100 to 1000 nM in experiment [2].

As for `CS(=O)(=O)Nc1ccc2c(c1)ncn2-c1nc2cc(F)c(F)cc2n1C1CC1` [Example 46, N-(1′-cyclopropyl-5′,6′-difluoro-1′H-[1,2′-bibenzo[d]imidazol]-5-yl) methanesulfonamide], the IC50 in experiment [1] was 100 to 1000 nM; in experiment [2], > 10000 nM.

Take `CCc1ccc2c(c1)ncn2-c1nc2ccc(F)cc2n1C1CC1` [Example 10, 1′-cyclopropyl-5-ethyl-6′-fluoro-1′H-1,2′-bibenzo[d]imidazole]: the values for the IC50 in experiment [1] and in experiment [2] were 1 to 100 nM and 100 to 1000 nM, respectively.

Consider `CS(=O)(=O)N(c1ccc2c(c1)ncn2-c1nc2ccc(F)c(F)c2n1C1CC1)S(C)(=O)=O` [Example 30, N-(1′-cyclopropyl-6′,7′-difluoro-1′H-[1,2′-bibenzo[d]imidazol]-5-yl)-N-(methylsulfonyl) methanesulfonamide], for which the IC50 in experiment [1] was 1000 to 10000 nM; in experiment [2] it was > 10000 nM.

Take `Fc1ccc2ncn(-c3nc4ccc(F)cc4n3C3CC3)c2c1` [Example 19, 1′-cyclopropyl-6,6′-difluoro-1′H-1,2′-bibenzo[d]imidazole]: the IC50 was 1 to 100 nM in experiment [1] and 1000 to 10000 nM in experiment [2].

For `N#Cc1ccc2c(c1)ncn2-c1nc2cc(F)c(F)cc2n1C1CC1` [Example 23, 1′-cyclopropyl-5′,6′-difluoro-1′H-[1,2′-bibenzo[d]imidazole]-5-carbonitrile], the IC50 in experiment [1] lay within 1 to 100 nM; in experiment [2], 1000 to 10000 nM.

In the case of `COc1cc2ncn(-c3nc4ccc(F)cc4n3C3CC3)c2cc1OC` [Example 5, 1′-cyclopropyl-6′-fluoro-5,6-dimethoxy-1′H-1,2′-bibenzo[d]imidazole], the IC50 in experiment [1] was 1 to 100 nM; in experiment [2] it was 1000 to 10000 nM.

On to `Fc1cc2nc(-n3cnc4ccc(OC(F)F)cc43)n(C3CC3)c2cc1F` [Example 53, 1′-cyclopropyl-6-(difluoromethoxy)-5′,6′-difluoro-1′H-1,2′-bibenzo[d]imidazole], for which the values for the IC50 in experiment [1] and in experiment [2] were 1 to 100 nM and 1000 to 10000 nM, respectively.

As to `N#Cc1ccc2nc(-n3cnc4cc(F)c(F)cc43)n(C3CC3)c2c1` [Example 25, 1′-cyclopropyl-5,6-difluoro-1′H-[1,2′-bibenzo[d]imidazole]-6′-carbonitrile], the IC50 was 1 to 100 nM in experiment [1] and 1000 to 10000 nM in experiment [2].

For `Cc1cccc2c1ncn2-c1nc2ccc(F)cc2n1C1CC1` [Example 14, 1′-cyclopropyl-6′-fluoro-4-methyl-1′H-1,2′-bibenzo[d]imidazole], the IC50 in experiment [1] was 1000 to 10000 nM; in experiment [2], > 10000 nM.

Regarding `CCn1c(-n2cnc3cc(F)c(F)cc32)nc2ccc(C#N)cc21` [Example 22, 1′-ethyl-5,6-difluoro-1′H-[1,2′-bibenzo[d]imidazole]-6′-carbonitrile], the IC50 in experiment [1] fell in the range of 1 to 100 nM; in experiment [2], 1000 to 10000 nM.

Regarding `Fc1ccc2nc(-n3cnc4ccccc43)n(C3CC3)c2c1` [Example 1, 1′-cyclopropyl-6′-fluoro-1′H-1,2′-bibenzo[d]imidazole], the results for the IC50 in experiment [1] and in experiment [2] were 1 to 100 nM and 100 to 1000 nM, respectively.

For the compound `Fc1cc2ncn(-c3nc4ccc(Cl)cc4n3C3CC3)c2cc1F` [Example 26, 6′-chloro-1′-cyclopropyl-5,6-difluoro-1′H-1,2′-bibenzo[d]imidazole], the IC50 is 1 to 100 nM in experiment [1] and 1000 to 10000 nM in experiment [2].

Consider `O=C(O)c1cc2c(cn1)ncn2-c1nc2cc(F)c(F)cc2n1C1CC1` [Example 39, 1-(1-cyclopropyl-5,6-difluoro-1H-benzo[d]imidazol-2-yl)-1H-imidazo[4,5-c]pyridine-6-carboxylic acid], for which the IC50 in experiment [1] was 1000 to 10000 nM; in experiment [2] it was > 10000 nM.

With `Cc1ccc2ncn(-c3nc4ccc(F)cc4n3C3CC3)c2c1` [Example 9, 1′-cyclopropyl-6′-fluoro-6-methyl-1′H-1,2′-bibenzo[d]imidazole], the IC50 in experiment [1] lay in the range of 1 to 100 nM; in experiment [2] it was 100 to 1000 nM.

Turning to `Fc1ccc2nc(-n3cnc4ccccc43)n(C3CC3)c2c1F` [Example 2, 1′-cyclopropyl-6′,7′-difluoro-1′H-1,2′-bibenzo[d]imidazole], the results for the IC50 in experiment [1] and in experiment [2] were 1 to 100 nM and 1000 to 10000 nM, respectively.

Take `Fc1cc2ncn(-c3nc4cc(F)c(F)cc4n3C3CC3)c2cc1F` [Example 17, 1′-cyclopropyl-5,5′,6,6′-tetrafluoro-1′H-1,2′-bibenzo[d]imidazole]: the IC50 lay in the range of 1 to 100 nM in experiment [1] and 1000 to 10000 nM in experiment [2].

Source of the values: patent US12358893B2, “Metalloenzyme inhibitor compounds” (Corxel Pharmaceuticals Hong Kong Limited, priority 2019, dated 2025).
